Test systems include EKVX NSCLC; COLO 205 colon; OVCAR-3 ovarian; SN12C renal; M14 melanoma; ACHN renal; HOP-92 NSCLC; OVCAR-8 ovarian; CCRF-CEM leukemia; MALME-3M melanoma.
What all share (test): DTP human tumour cell line panel, 48 h

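Dose response: 5 concentrations. Exposure: 48 h. Format: 96-well plates. Endpoint: linear interpolation; highest concentration if not reached. GI50 marks 50% less growth. TGI marks complete inhibition of growth.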

`COc1ccc(-c2cc(-c3cc(Cl)cc(Br)c3O)[nH]c(=O)n2)cc1`: the TGI (commonly the concentration at which net growth stops) is 27.3 µM in the experiment with EKVX NSCLC; 29 µM with COLO 205 colon; 31.5 µM in the experiment on OVCAR-3 ovarian; 32.3 µM with SN12C renal; 43.3 µM in the experiment on M14 melanoma; 27.7 µM in the experiment on ACHN renal. The TGI with HOP-92 NSCLC was determined as 34.7 µM; with OVCAR-8 ovarian it was 37.2 µM; in the experiment with CCRF-CEM leukemia, 70.7 µM; with MALME-3M melanoma it was 42.3 µM.

In the case of `CCCCNC(=O)c1cc(NCc2cc(O)ccc2O)ccc1O`, the GI50 (usually the concentration that inhibits growth by half) in the experiment on EKVX NSCLC was 13.4 µM; in the experiment on COLO 205 colon it was 17 µM; in the experiment with OVCAR-3 ovarian, 4.8 µM; with SN12C renal, 13.6 µM; in the experiment on M14 melanoma, 19.2 µM; in the experiment on ACHN renal, 10.8 µM. For the same compound, the GI50 in the experiment on HOP-92 NSCLC is 6.81 µM; in the experiment with OVCAR-8 ovarian it was 18.1 µM; in the experiment on CCRF-CEM leukemia, 0.873 µM; in the experiment with MALME-3M melanoma, 11.8 µM. The TGI worked out at 28.1 µM in the experiment on EKVX NSCLC; 36.9 µM in the experiment with COLO 205 colon; 17.1 µM in the experiment on OVCAR-3 ovarian; 29.5 µM in the experiment on SN12C renal; 43.7 µM in the experiment on M14 melanoma; 22.7 µM in the experiment with ACHN renal. Further, the total growth inhibition concentration (TGI) in the experiment on HOP-92 NSCLC amounted to 21.7 µM; in the experiment on OVCAR-8 ovarian it was 68.8 µM; with CCRF-CEM leukemia it was 12.8 µM; with MALME-3M melanoma, 27.3 µM.

With `C/C(=N\N=C(\[Se])N(C)C)c1ccccn1`, the TGI came to 11.6 µM in the experiment on EKVX NSCLC; 2.05 µM with COLO 205 colon; 11.8 µM in the experiment with OVCAR-3 ovarian; 14.9 µM in the experiment with SN12C renal; 3.24 µM in the experiment on M14 melanoma; 13.2 µM in the experiment with ACHN renal. In addition, the TGI in the experiment on HOP-92 NSCLC amounted to 13.1 µM; in the experiment with OVCAR-8 ovarian it was 6.46 µM; in the experiment with CCRF-CEM leukemia it was 2.1 µM; in the experiment with MALME-3M melanoma, 9.35 µM.

For `COc1cc2ncnc(Nc3ccc4c(cnn4Cc4ccccc4)c3)c2cc1OC`, the GI50 in the experiment on EKVX NSCLC was 0.0796 µM; with COLO 205 colon, above 25 µM; with OVCAR-3 ovarian, 15.1 µM; in the experiment on SN12C renal, above 17 µM; in the experiment with M14 melanoma, above 25 µM; in the experiment with ACHN renal, 0.642 µM. Besides, the GI50 was 0.434 µM in the experiment with HOP-92 NSCLC, above 17.5 µM with OVCAR-8 ovarian, above 18.1 µM in the experiment on CCRF-CEM leukemia and above 25 µM in the experiment on MALME-3M melanoma. In addition, the TGI with EKVX NSCLC, in the experiment on COLO 205 colon, in the experiment on OVCAR-3 ovarian, in the experiment with SN12C renal, with M14 melanoma and in the experiment on ACHN renal was above 25 µM each time. Besides, the TGI with HOP-92 NSCLC, in the experiment on OVCAR-8 ovarian, with CCRF-CEM leukemia and in the experiment on MALME-3M melanoma was above 25 µM in each case.

With `CC(/C=C/c1ccccc1)=N\NC(N)=S`, the TGI with EKVX NSCLC is above 100 µM; in the experiment on COLO 205 colon, 44.2 µM; in the experiment with OVCAR-3 ovarian, 66.8 µM; in the experiment with SN12C renal it was above 100 µM; in the experiment with M14 melanoma, 88.4 µM; in the experiment with ACHN renal it was above 100 µM. The TGI in the experiment with HOP-92 NSCLC, in the experiment on OVCAR-8 ovarian, in the experiment on CCRF-CEM leukemia and with MALME-3M melanoma was above 100 µM throughout.

Regarding `CCOC(=O)c1oc2ccc([N+](=O)[O-])c3c2c1CCC3`, the TGI in the experiment on EKVX NSCLC, in the experiment with COLO 205 colon, in the experiment with OVCAR-3 ovarian, with SN12C renal, in the experiment on M14 melanoma and in the experiment with ACHN renal was above 100 µM throughout. The total growth inhibition concentration (TGI) with HOP-92 NSCLC was 71 µM; in the experiment on OVCAR-8 ovarian it was above 100 µM; with CCRF-CEM leukemia it was above 100 µM; in the experiment with MALME-3M melanoma, above 100 µM.

Turning to `Oc1ccc(CCNCc2cc3c(cc2Br)OCO3)cc1`, the TGI in the experiment with EKVX NSCLC was above 100 µM; in the experiment with COLO 205 colon, 40.8 µM; in the experiment with OVCAR-3 ovarian it was above 100 µM; with SN12C renal, above 100 µM; in the experiment on M14 melanoma, above 100 µM; with ACHN renal it was above 100 µM. For the same compound, the TGI with HOP-92 NSCLC, in the experiment with OVCAR-8 ovarian, in the experiment with CCRF-CEM leukemia and in the experiment with MALME-3M melanoma was above 100 µM throughout.

As for `O=S1(=O)CS(=O)(=O)OCCO1`, the total growth inhibition concentration (TGI) is 273 µM in the experiment with EKVX NSCLC; 157 µM in the experiment with COLO 205 colon; 87.5 µM with OVCAR-3 ovarian; 335 µM in the experiment with SN12C renal; 162 µM in the experiment with M14 melanoma; 56.5 µM in the experiment with ACHN renal. Besides, the TGI in the experiment on HOP-92 NSCLC came out at 112 µM; in the experiment with OVCAR-8 ovarian, 235 µM; in the experiment with CCRF-CEM leukemia, 252 µM; in the experiment with MALME-3M melanoma, 214 µM. Moreover, the GI50 with M14 melanoma was above 78.5 µM; in the experiment with ACHN renal, 36.3 µM; in the experiment with HOP-92 NSCLC, above 49.7 µM; in the experiment with OVCAR-8 ovarian it was above 77.7 µM.

Regarding `CCC(=O)Nc1ccccc1C#C/C=C\C#Cc1ccccc1C(F)(F)F`, the GI50 in the experiment on EKVX NSCLC was 1.06 µM; with COLO 205 colon it was 4.59 µM; in the experiment with OVCAR-3 ovarian it was 2.4 µM; in the experiment with SN12C renal it was 2.22 µM; in the experiment on M14 melanoma, 2.09 µM; in the experiment on ACHN renal it was 3.98 µM. Moreover, the GI50 in the experiment with HOP-92 NSCLC is 3.01 µM; with OVCAR-8 ovarian it was 8.04 µM; with CCRF-CEM leukemia, 2.4 µM; with MALME-3M melanoma, 7.54 µM. The concentration for total growth inhibition (TGI) in the experiment on EKVX NSCLC was 25.2 µM; with COLO 205 colon, above 25.9 µM; in the experiment with OVCAR-3 ovarian it was 11.2 µM; with SN12C renal, above 50 µM; in the experiment with M14 melanoma, 23.2 µM; with ACHN renal, above 50 µM. For the same compound, the concentration for total growth inhibition (TGI) is above 36.1 µM in the experiment on HOP-92 NSCLC, above 50 µM in the experiment on OVCAR-8 ovarian, above 20 µM with CCRF-CEM leukemia and above 50 µM in the experiment with MALME-3M melanoma.

With `NCCOc1ccccc1/C=C1\c2ccccc2-c2ccc([N+](=O)[O-])cc21`, the GI50 with EKVX NSCLC was 1.55 µM; with COLO 205 colon, 1.75 µM; in the experiment on OVCAR-3 ovarian, 1.76 µM; with SN12C renal, 1.41 µM; in the experiment on M14 melanoma, 1.65 µM; in the experiment with ACHN renal, 1.38 µM. For the same compound, the GI50 with HOP-92 NSCLC was 1.33 µM; in the experiment on OVCAR-8 ovarian, 1.53 µM; with CCRF-CEM leukemia it was 1.08 µM; with MALME-3M melanoma, 1.5 µM. Further, the total growth inhibition concentration (TGI) in the experiment on EKVX NSCLC was determined as 2.99 µM; in the experiment with COLO 205 colon, 3.44 µM; with OVCAR-3 ovarian it was 3.17 µM; with SN12C renal, 2.82 µM; with M14 melanoma, 3.02 µM; in the experiment with ACHN renal it was 2.69 µM. Moreover, the TGI in the experiment with HOP-92 NSCLC turned out to be 2.75 µM; with OVCAR-8 ovarian it was 3.33 µM; in the experiment on CCRF-CEM leukemia it was 2.54 µM; with MALME-3M melanoma, 2.91 µM.

The values are drawn from PubChem BioAssay (NCI).
